ChEMBL document CHEMBL1201862, “PubChem BioAssay data set” (2004)
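Protocol summary: plate cells (96-well), add compound at 5 concentrations, incubate 48 h, interpolate endpoints linearly. At the GI50, growth is halved.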 Activity calls are given as the source filed them. Rule as the data show it: active = GI50 up to about 1.1 µM and inactive = higher.

Tests used:
Test in all cases: NCI tumour cell line growth inhibition, 48 h
[1] = tested on: Malme-3M
[2] = tested on: SNB-75
[3] = tested on: SNB-19
[4] = tested on: A498
[5] = tested on: 786-0
[6] = tested on: OVCAR-5
[7] = tested on: SF-268
[8] = tested on: COLO 205
[9] = tested on: ACHN
[10] = tested on: K562
[11] = tested on: NCI-H23
[12] = tested on: DMS-114
[13] = tested on: HOP-92
[14] = tested on: HCT-15
[15] = tested on: CCRF-CEM
[16] = tested on: RXF 393
[17] = tested on: Hs-578T
[18] = tested on: DU-145
[19] = tested on: NCI/ADR-RES
[20] = tested on: MCF7

Measured: GI50

Cc1ccc(S(=O)(=O)N/N=C(\c2nc3ccc([N+](=O)[O-])cc3nc2O)C(O)c2ccccc2Cl)cc1 (configuration not stated)
inactive: [1] > 100 µM | [2] > 100 µM | [3] > 100 µM | [4] > 100 µM | [5] > 100 µM | [6] > 100 µM | [7] > 100 µM | [8] > 100 µM | [9] > 100 µM | [10] 28.2 µM | [11] > 100 µM | [12] 16.7 µM | [13] > 100 µM | [15] 17.5 µM
78 µM: [14]

COC(=O)CCSC(=O)Nc1ccccc1Cl
> 100 µM: [14]
inactive: [2] > 100 µM | [3] > 100 µM | [4] > 100 µM | [5] > 100 µM | [6] > 100 µM | [7] > 100 µM | [8] > 100 µM | [9] > 100 µM | [10] > 100 µM | [11] > 100 µM | [12] > 100 µM | [15] 58.1 µM

CC1(C)C(O)OC(O)C1(C)C (configuration not stated)
28.1 µM: [14]
inactive: [16] 32.6 µM | [1] > 100 µM | [2] 35.2 µM | [3] 66.8 µM | [5] 93.1 µM | [6] > 100 µM | [8] > 100 µM | [9] > 100 µM | [10] 57.9 µM | [12] > 100 µM | [13] > 100 µM | [15] 46 µM

O=C(CC1(O)C(=O)Nc2c(Cl)cc(Cl)cc21)c1ccc(F)cc1 (configuration not stated)
inactive: [16] 27 µM | [1] 41.9 µM | [2] 25.9 µM | [3] 59.3 µM | [5] 19.8 µM | [6] 64.7 µM | [7] 39.6 µM | [8] 19 µM | [9] 35.9 µM | [11] 28.5 µM | [12] 23.9 µM | [13] 47.1 µM
30.6 µM: [14]

CC1=NN2C(=N)/C(=C/c3ccccc3)C(=O)N=C2S1
inactive: [16] > 100 µM | [17] > 100 µM | [1] > 100 µM | [2] > 100 µM | [3] > 100 µM | [4] > 100 µM | [5] > 100 µM | [6] > 100 µM | [7] > 100 µM | [8] > 100 µM | [9] > 100 µM | [10] > 100 µM | [11] > 100 µM | [18] > 100 µM | [13] > 100 µM | [19] > 33.1 µM | [15] > 100 µM
> 100 µM: [14]
active: [20] 0.867 µM

O=C(/C=C1\N=C(c2ccccc2)N(c2nc3ccc(Sc4ccccc4)cc3[nH]2)C1=O)/C=C/c1ccccc1
33.1 µM: [14]
inactive: [16] 22.8 µM | [17] 26.4 µM | [1] 34.7 µM | [2] 16.7 µM | [3] 49 µM | [4] 27.9 µM | [5] 33.3 µM | [6] 44 µM | [7] 31.4 µM | [8] 16.5 µM | [9] 52.7 µM | [10] 26.2 µM | [11] 31.6 µM | [18] 28.1 µM | [13] 37.8 µM | [19] 24.4 µM | [15] 31.6 µM | [20] 30.1 µM

Cc1nc2c(=O)n(-c3ccccc3)c3ccccc3c2o1
inactive: [16] > 100 µM | [17] > 100 µM | [1] > 100 µM | [2] > 100 µM | [3] > 100 µM | [4] > 100 µM | [5] > 100 µM | [6] > 100 µM | [7] > 100 µM | [8] > 100 µM | [9] > 100 µM | [10] > 100 µM | [11] > 100 µM | [18] > 100 µM | [13] > 100 µM | [19] > 100 µM | [15] > 100 µM | [20] > 100 µM
> 100 µM: [14]

N=C(N)N/N=C/c1c(-c2ccc(Cl)c([N+](=O)[O-])c2)nc2sccn12
inactive: [16] 1.22 µM | [17] 2.05 µM | [1] 1.91 µM | [2] 1.62 µM | [3] 1.31 µM | [4] 1.72 µM | [5] 1.73 µM | [6] 1.71 µM | [7] 1.92 µM | [8] 1.31 µM | [9] 1.71 µM | [11] 1.85 µM | [18] 1.78 µM | [13] 1.87 µM | [19] > 100 µM | [15] 1.41 µM | [20] 1.37 µM
2.21 µM: [14]
active: [10] 0.845 µM

COc1ccc(-c2csc(-n3c(-c4ccccc4)nc4c(Br)cc(Br)cc4c3=O)n2)cc1
19.3 µM: [14]
inactive: [16] 26.3 µM | [17] 41 µM | [1] 26 µM | [2] 31.3 µM | [3] 34 µM | [4] 15.5 µM | [5] 22.9 µM | [6] 20.9 µM | [7] 15.6 µM | [8] 37 µM | [9] 25.1 µM | [10] 20.8 µM | [11] 14.4 µM | [18] 39.2 µM | [13] 5.14 µM | [19] 19.6 µM | [15] 13.1 µM | [20] 35.1 µM

O=C1NC(SSC2=NNC3(C(=O)N2)c2ccccc2-c2ccccc23)=NNC12c1ccccc1-c1ccccc12
inactive: [16] > 10 µM | [17] > 10 µM | [1] > 10 µM | [2] > 10 µM | [3] > 10 µM | [4] > 10 µM | [5] > 10 µM | [6] > 10 µM | [7] > 10 µM | [8] > 10 µM | [9] > 10 µM | [10] > 10 µM | [11] > 10 µM | [18] > 10 µM | [13] > 10 µM | [19] > 10 µM | [15] > 10 µM | [20] > 10 µM
> 10 µM: [14]

O=C(CCCN1CCC2(CC1)CC(=O)N(N1CCCCCC1)C2=O)c1ccccc1
> 100 µM: [14]
inactive: [16] > 100 µM | [17] > 100 µM | [1] > 100 µM | [2] > 100 µM | [3] > 100 µM | [4] > 100 µM | [5] > 100 µM | [6] > 100 µM | [7] > 100 µM | [8] > 100 µM | [9] > 100 µM | [10] 70.8 µM | [11] > 100 µM | [18] > 100 µM | [13] > 100 µM | [19] > 100 µM | [15] > 100 µM | [20] > 100 µM

CCC(=O)Nc1cccc(NC(=O)c2c(Cl)c(Cl)c(Cl)c(Cl)c2-c2nc3ccccc3[nH]2)c1
active: [3] 1.03 µM
60.7 µM: [14]
inactive: [16] 21.6 µM | [17] > 100 µM | [1] > 100 µM | [2] 3.94 µM | [4] > 100 µM | [5] 84.9 µM | [6] > 100 µM | [7] 79.4 µM | [8] 53.1 µM | [9] 80.7 µM | [10] 25.4 µM | [11] > 100 µM | [18] > 100 µM | [13] 5.36 µM | [19] > 100 µM | [15] 7.45 µM | [20] 12.7 µM

O=C(O[C@@H](/C=C/c1ccccc1)P1(=O)N(Cc2ccccc2)[C@H]2CCCC[C@@H]2N1Cc1ccccc1)c1ccccc1
3.28 µM: [14]
inactive: [16] 2 µM | [17] 13.6 µM | [1] 4.2 µM | [2] 5.6 µM | [3] 5.81 µM | [4] 2.12 µM | [5] 4.32 µM | [6] 3.86 µM | [7] 5.5 µM | [8] 1.7 µM | [9] 2.32 µM | [10] 3.47 µM | [11] 2.96 µM | [18] 6.21 µM | [13] 2.86 µM | [19] 3.52 µM | [15] 3.03 µM | [20] 2.32 µM

CC(C)NC(=O)OCc1c(COC(=O)NC(C)C)c(-c2ccc[n+](COC(=O)C3CC3)c2)n2c1CCC2
inactive: [16] 34.2 µM | [17] 79.3 µM | [1] > 100 µM | [2] 70.6 µM | [3] > 100 µM | [4] 35.9 µM | [5] 27 µM | [6] > 100 µM | [7] 28.4 µM | [8] 70.5 µM | [9] 20 µM | [10] 32.6 µM | [11] 29.6 µM | [18] 37.6 µM | [13] 40.8 µM | [19] 47.1 µM | [15] 30.4 µM | [20] 49.5 µM
87.3 µM: [14]

CCOC(=O)C(C(=O)OCC)C(=O)c1ccccc1C(=O)c1ccccc1
inactive: [16] > 100 µM | [17] 84.7 µM | [1] > 100 µM | [2] > 100 µM | [3] > 100 µM | [4] > 100 µM | [5] > 100 µM | [6] > 100 µM | [7] > 100 µM | [8] > 100 µM | [9] > 100 µM | [10] > 100 µM | [11] > 100 µM | [18] 43.8 µM | [13] > 100 µM | [19] > 100 µM | [15] 96.2 µM | [20] > 100 µM
> 100 µM: [14]

Cc1ccc2nc(-c3ccc(-n4c(C)nc(=O)c(-c5ccc(F)cc5)c4C)cc3)sc2c1
inactive: [16] 9.75 µM | [17] 25.9 µM | [1] 14.5 µM | [2] 13.7 µM | [3] 14.8 µM | [4] 18.2 µM | [5] 13.6 µM | [6] 19.3 µM | [7] 20.3 µM | [8] 4.97 µM | [9] 14.6 µM | [10] 10.8 µM | [11] 16.3 µM | [18] 15.9 µM | [13] 17.6 µM | [19] 15 µM | [15] 13 µM | [20] 13.3 µM
12.4 µM: [14]
